Reference: patent US8524755B2 (priority 2009, dated 2013)

Tests used:
P2X = test: Binding P2X (ag); set-up: species or system rat
Description: (§1) Radioligand binding assay methods utilized to measure the activity of compounds of the invention will be familiar to those skilled in the art. In each assay case, the assay components such as, for example, the cell-type, ligand, reference compound and the like, will be familiar to practitioners of such an assay.
(§2) Analysis and Expression of Results: Compounds of the invention were tested in the biochemical assays and percent inhibition of specific binding was determined. The specific ligand binding to the receptors is defined as the difference between the total binding and the nonspecific binding determined in the presence of an excess of unlabelled ligand. The results are expressed as a percent inhibition of control specific binding (100−((measured specific binding/control specific binding)×100)) obtained in the presence of test compounds.

BLT1 (LTB4) (h) = molecular target: T1, BLT1 (LTB4) (h) (Homo sapiens, UniProt Q15722); test: Binding BLT1 (LTB4) (h) (ag); conditions: read-out: % Inhibition of Control Specific Binding @ 10 μM
T1 construct: expressed in transfected cells; host or cells: CHO cells
T1 sequence (Q15722 whole entry): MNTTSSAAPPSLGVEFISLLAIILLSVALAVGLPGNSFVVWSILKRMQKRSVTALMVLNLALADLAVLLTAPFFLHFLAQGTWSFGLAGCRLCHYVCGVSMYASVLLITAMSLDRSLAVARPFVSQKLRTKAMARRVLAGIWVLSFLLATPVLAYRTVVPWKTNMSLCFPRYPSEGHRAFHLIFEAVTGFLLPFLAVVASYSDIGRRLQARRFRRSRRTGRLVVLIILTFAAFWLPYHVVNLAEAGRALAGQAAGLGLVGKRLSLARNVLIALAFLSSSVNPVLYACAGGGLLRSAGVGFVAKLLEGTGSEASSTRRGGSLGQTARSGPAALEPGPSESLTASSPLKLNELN
Description: as §1, §2

Neurokinin NK2 (h) = molecular target: T2, Neurokinin NK2 (h) (Homo sapiens, UniProt P21452); test: Binding NK2 (h) (ag); conditions: read-out: % Inhibition of Control Specific Binding @ 10 μM
T2 construct: expressed in transfected cells; host or cells: CHO cells
T2 sequence (P21452 1-398): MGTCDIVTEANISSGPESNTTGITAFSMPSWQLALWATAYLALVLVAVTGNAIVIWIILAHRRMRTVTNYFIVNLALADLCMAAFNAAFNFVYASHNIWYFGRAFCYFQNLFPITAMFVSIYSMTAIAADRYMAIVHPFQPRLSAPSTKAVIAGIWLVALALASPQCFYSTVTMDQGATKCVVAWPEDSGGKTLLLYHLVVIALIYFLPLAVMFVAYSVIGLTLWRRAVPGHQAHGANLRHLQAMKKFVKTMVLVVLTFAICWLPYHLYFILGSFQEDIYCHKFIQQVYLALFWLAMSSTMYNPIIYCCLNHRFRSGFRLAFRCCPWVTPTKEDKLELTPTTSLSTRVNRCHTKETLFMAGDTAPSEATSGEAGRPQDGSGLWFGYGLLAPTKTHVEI
Description: as §1, §2

[1] = molecular target: T3, human GABAA α1β3γ2 receptor (Homo sapiens, UniProt P14867+P18507+P28472); test: GABAA Functional Assay, α1β3γ2, Xenopus oocytes; assay type: cell-based
T3 construct: expressed in transfected cells; host or cells: Xenopus laevis oocytes, cDNA injection
T3 sequence (P14867 28-456): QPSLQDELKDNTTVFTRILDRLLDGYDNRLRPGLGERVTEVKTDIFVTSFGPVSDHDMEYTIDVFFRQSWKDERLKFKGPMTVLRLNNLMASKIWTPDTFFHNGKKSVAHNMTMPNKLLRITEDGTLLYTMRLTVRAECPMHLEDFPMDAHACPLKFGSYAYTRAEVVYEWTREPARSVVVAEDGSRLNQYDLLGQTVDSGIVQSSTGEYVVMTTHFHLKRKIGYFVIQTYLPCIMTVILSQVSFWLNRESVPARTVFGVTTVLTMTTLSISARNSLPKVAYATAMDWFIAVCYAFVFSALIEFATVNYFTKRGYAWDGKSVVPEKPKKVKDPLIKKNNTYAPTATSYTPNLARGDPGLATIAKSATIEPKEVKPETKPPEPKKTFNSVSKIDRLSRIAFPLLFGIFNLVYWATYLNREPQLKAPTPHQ
T3 sequence (P28472 26-473): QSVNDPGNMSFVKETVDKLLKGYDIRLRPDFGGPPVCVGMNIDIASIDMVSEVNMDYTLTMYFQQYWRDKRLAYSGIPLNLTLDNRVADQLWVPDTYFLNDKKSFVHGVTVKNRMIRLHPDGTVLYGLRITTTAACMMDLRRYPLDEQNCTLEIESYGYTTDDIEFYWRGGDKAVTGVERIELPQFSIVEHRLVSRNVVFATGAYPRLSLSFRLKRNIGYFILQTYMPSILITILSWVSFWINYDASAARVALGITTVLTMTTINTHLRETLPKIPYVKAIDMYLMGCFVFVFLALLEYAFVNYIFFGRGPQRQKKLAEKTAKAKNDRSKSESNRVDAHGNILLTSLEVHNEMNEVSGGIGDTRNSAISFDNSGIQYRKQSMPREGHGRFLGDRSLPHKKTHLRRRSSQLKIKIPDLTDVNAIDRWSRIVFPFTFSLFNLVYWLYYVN
T3 sequence (P18507 40-475): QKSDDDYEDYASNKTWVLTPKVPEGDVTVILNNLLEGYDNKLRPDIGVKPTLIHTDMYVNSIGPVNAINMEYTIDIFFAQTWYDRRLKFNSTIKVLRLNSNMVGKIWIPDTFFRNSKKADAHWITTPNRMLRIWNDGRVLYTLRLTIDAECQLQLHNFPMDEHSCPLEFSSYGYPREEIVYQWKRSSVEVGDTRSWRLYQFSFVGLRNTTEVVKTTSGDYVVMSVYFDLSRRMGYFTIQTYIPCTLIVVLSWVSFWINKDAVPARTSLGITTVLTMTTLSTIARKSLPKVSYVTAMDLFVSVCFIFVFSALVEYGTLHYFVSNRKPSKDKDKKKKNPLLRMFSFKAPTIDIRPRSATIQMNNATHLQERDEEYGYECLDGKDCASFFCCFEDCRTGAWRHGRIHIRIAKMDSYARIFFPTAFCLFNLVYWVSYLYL

Adrenergic α1 (ns) = test: Binding α1 (ns) (aa); set-up: species or system rat
Description: as §1, §2

Vasopressin V2 (h) = molecular target: T4, Vasopressin V2 (h) (Homo sapiens, UniProt P30518); test: Binding V2 (h) (ag); conditions: read-out: % Inhibition of Control Specific Binding @ 10 μM
T4 construct: expressed in transfected cells; host or cells: CHO cells
T4 sequence (P30518 whole entry): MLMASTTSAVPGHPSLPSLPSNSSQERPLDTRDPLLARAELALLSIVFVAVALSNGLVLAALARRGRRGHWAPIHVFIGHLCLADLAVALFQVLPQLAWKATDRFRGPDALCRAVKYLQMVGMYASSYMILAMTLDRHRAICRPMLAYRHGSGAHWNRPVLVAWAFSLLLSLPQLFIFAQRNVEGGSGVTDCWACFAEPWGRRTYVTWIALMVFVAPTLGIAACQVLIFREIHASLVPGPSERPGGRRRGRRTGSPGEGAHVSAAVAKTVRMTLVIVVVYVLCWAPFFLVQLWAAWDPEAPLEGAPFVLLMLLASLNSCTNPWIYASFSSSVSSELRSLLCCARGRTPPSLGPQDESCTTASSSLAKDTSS
Description: as §1, §2

SKCa channel = test: Binding SKCa channel (aa); set-up: species or system rat
Description: as §1, §2

Endothelin ETA (h) = molecular target: T5, Endothelin ETA (h) (Homo sapiens, UniProt P25101); test: Binding ETA (h) (ag); conditions: read-out: % Inhibition of Control Specific Binding @ 10 μM
T5 construct: expressed in transfected cells; host or cells: CHO cells
T5 sequence (P25101 21-427): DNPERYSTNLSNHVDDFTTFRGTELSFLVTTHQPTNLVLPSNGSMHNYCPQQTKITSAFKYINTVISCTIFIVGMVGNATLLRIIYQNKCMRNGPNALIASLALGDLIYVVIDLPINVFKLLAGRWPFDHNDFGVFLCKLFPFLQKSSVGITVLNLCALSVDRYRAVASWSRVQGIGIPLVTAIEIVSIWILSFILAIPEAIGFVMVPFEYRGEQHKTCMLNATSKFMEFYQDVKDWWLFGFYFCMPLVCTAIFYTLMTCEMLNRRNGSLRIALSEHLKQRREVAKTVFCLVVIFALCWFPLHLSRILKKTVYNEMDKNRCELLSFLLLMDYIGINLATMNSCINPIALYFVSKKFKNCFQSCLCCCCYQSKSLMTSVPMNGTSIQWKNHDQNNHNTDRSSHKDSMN
Description: as §1, §2

Histamine H3 (h) = molecular target: T6, Histamine H3 (h) (Homo sapiens, UniProt Q9Y5N1); test: Binding H3 (h) (ag); conditions: read-out: % Inhibition of Control Specific Binding @ 10 μM
T6 construct: expressed in transfected cells; host or cells: CHO cells
T6 sequence (Q9Y5N1 whole entry): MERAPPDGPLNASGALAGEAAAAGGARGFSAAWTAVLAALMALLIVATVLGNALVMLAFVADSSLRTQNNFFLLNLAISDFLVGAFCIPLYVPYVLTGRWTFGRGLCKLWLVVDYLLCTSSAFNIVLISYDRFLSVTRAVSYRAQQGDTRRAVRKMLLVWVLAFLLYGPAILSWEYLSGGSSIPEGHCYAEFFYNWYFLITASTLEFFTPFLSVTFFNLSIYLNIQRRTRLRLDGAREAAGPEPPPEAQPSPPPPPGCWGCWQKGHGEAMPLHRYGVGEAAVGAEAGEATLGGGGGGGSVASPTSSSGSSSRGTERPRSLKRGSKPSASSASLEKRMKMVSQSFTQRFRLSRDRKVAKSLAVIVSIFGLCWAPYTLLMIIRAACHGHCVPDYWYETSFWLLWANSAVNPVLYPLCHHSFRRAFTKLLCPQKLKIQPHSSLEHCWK
Description: as §1, §2

PDE4D (h) = molecular target: T7, PDE4D (h) (Homo sapiens, UniProt Q08499); test: Enzyme assay PDE4D (h); assay type: biochemical; conditions: read-out: % Inhibition of Control Values @ 10 μM
T7 construct: host or cells: Sf9 cells
T7 sequence (Q08499 whole entry): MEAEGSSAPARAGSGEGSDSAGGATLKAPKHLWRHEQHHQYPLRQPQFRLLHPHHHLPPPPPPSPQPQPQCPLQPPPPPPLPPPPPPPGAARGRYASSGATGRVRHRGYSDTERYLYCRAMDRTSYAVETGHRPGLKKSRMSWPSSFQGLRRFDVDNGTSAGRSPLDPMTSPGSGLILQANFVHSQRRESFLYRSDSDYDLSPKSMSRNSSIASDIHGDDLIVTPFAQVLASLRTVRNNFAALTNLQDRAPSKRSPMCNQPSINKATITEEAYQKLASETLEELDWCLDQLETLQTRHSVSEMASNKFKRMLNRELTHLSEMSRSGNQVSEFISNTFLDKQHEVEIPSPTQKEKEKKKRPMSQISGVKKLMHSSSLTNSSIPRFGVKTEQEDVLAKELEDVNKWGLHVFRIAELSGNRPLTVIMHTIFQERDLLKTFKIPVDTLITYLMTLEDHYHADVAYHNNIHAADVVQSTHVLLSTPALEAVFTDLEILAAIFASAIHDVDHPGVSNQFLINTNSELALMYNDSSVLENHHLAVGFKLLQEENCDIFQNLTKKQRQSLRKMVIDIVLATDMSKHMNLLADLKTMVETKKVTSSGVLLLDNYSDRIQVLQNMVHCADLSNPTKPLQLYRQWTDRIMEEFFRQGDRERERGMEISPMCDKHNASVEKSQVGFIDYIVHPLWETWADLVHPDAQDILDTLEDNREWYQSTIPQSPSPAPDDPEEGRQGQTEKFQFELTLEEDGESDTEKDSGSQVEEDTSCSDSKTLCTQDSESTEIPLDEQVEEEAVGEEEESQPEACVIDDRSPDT
Description: The enzyme assays provided below will be familiar to those skilled in the art.
Analysis and Expression of Results: The results are expressed as a percent of control specific activity ((measured specific activity/control specific activity)×100) obtained in the presence of the test compounds.

Adenosine A1 (h) = molecular target: T8, Adenosine A1 (h) (Homo sapiens, UniProt P30542); test: Binding A1 (h) (aa); conditions: read-out: % Inhibition of Control Specific Binding @ 10 μM
T8 construct: expressed in transfected cells; host or cells: CHO cells
T8 sequence (P30542 1-326): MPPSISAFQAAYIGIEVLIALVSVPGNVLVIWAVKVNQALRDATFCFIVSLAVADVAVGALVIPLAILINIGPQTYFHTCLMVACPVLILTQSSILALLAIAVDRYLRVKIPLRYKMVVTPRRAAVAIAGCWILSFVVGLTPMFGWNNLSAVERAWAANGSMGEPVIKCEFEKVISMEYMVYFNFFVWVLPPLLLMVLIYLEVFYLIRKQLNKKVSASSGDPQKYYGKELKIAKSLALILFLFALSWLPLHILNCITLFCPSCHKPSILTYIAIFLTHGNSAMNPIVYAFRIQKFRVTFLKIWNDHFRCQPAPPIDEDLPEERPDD
Description: as §1, §2

Adenosine A2A (h) = molecular target: T9, Adenosine A2A (h) (Homo sapiens, UniProt P29274); test: Binding A2A (h) (ag); conditions: read-out: % Inhibition of Control Specific Binding @ 10 μM
T9 construct: expressed in transfected cells; host or cells: HEK-293 cells
T9 sequence (P29274 whole entry): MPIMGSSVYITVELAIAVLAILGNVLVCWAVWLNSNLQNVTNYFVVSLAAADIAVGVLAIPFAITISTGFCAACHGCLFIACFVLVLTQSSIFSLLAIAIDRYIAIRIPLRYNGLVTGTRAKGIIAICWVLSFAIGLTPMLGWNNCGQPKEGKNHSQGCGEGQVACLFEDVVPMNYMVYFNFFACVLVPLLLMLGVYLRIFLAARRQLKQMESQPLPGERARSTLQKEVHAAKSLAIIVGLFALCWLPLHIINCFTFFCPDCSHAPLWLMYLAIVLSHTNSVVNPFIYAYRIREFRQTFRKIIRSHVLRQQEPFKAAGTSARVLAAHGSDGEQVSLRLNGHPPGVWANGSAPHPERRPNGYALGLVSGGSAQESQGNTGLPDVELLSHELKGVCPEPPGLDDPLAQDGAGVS
Description: as §1, §2

Bradykinin B2 (h) = molecular target: T10, Bradykinin B2 (h) (Homo sapiens, UniProt P30411); test: Binding B2 (h) (ag); conditions: read-out: % Inhibition of Control Specific Binding @ 10 μM
T10 construct: expressed in transfected cells; host or cells: CHO cells
T10 sequence (P30411 1-391): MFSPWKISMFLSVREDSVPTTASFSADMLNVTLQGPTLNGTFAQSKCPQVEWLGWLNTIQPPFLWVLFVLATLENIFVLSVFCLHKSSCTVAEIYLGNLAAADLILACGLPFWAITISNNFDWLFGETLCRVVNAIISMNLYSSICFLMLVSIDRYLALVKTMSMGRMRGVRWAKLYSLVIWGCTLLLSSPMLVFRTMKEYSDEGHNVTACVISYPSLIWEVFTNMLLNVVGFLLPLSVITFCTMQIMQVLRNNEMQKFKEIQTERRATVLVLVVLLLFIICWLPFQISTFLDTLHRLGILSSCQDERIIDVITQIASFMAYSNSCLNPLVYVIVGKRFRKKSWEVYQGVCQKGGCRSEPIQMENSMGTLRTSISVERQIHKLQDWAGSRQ
Description: as §1, §2

KV channel = test: Binding KV channel (aa); set-up: species or system rat
Description: as §1, §2

[2] = test system: Ca^2+ channel (L, dihydropyridine site); test: Binding Ca2+ channel (L, dihydropyridine site) (aa); set-up: species or system rat
Description: as §1, §2

Thyroid hormone TR (TH) = test: Binding TR (TH) (ag); set-up: species or system rat
Description: as §1, §2

CC1(C)C(=O)N(c2ccc(C#N)c(C(F)(F)F)c2)C(=S)N1c1ccc(C(=O)O)c(F)c1 [(MI), 4-(3-(4-cyano-3-(trifluoromethyl)phenyl)-5,5-dimethyl-4-oxo-2-thioxoimidazolidin-1-yl)-2-fluorobenzoic acid]
% Inhibition of Control Specific Binding @ 10 μM (P2X): 4% | inhibition at 10 µM (BLT1 (LTB4) (h)): -15% | inhibition at 10 µM (Neurokinin NK2 (h)): -6% | IC50 ([1]; antagonist protocol, Xenopus oocytes, read-out: α1β3γ2 receptor derived IC50): 68.3 ± 6 µM | % Inhibition of Control Specific Binding @ 10 μM (Adrenergic α1 (ns)): −4% | inhibition at 10 µM (Vasopressin V2 (h)): 5% | % Inhibition of Control Specific Binding @ 10 μM (SKCa channel): −6% | inhibition at 10 µM (Endothelin ETA (h)): -21% | inhibition at 10 µM (Histamine H3 (h)): -3% | inhibition at 10 µM (PDE4D (h)): 1% | inhibition at 10 µM (Adenosine A1 (h)): 10% | inhibition at 10 µM (Adenosine A2A (h)): 10% | inhibition at 10 µM (Bradykinin B2 (h)): 2% | % Inhibition of Control Specific Binding @ 10 μM (KV channel): −2% | % Inhibition of Control Specific Binding @ 10 μM [2]: 16% | % Inhibition of Control Specific Binding @ 10 μM (Thyroid hormone TR (TH)): −7%

CC1(C)C(=O)N(c2ccc(C#N)c(C(F)(F)F)c2)C(=S)N1c1ccc(C(N)=O)c(F)c1 [(MII), 4-(3-(4-Cyano-3-(trifluoromethyl)phenyl)-5,5-dimethyl-4-oxo-2-thioxoimidazolidin-1-yl)-2-fluorobenzamide]
% Inhibition of Control Specific Binding @ 10 μM (P2X): 4% | inhibition at 10 µM (BLT1 (LTB4) (h)): -8% | inhibition at 10 µM (Neurokinin NK2 (h)): -3% | % Inhibition of Control Specific Binding @ 10 μM (Adrenergic α1 (ns)): −7% | inhibition at 10 µM (Vasopressin V2 (h)): 3% | % Inhibition of Control Specific Binding @ 10 μM (SKCa channel): 4% | inhibition at 10 µM (Endothelin ETA (h)): -16% | inhibition at 10 µM (Histamine H3 (h)): -2% | inhibition at 10 µM (PDE4D (h)): -9% | inhibition at 10 µM (Adenosine A1 (h)): 9% | inhibition at 10 µM (Adenosine A2A (h)): -5% | inhibition at 10 µM (Bradykinin B2 (h)): -12% | % Inhibition of Control Specific Binding @ 10 μM (KV channel): −3% | % Inhibition of Control Specific Binding @ 10 μM [2]: 18% | % Inhibition of Control Specific Binding @ 10 μM (Thyroid hormone TR (TH)): 0%

CC1(C)C(=O)N(c2ccc(C#N)c(C(F)(F)F)c2)C(=O)N1c1ccc(C(N)=O)c(F)c1 [(MIII), 4-(3-(4-cyano-3-(trifluoromethyl)phenyl)-5,5-dimethyl-2,4-dioxoimidazolidin-1-yl)-2-fluorobenzamide]
% Inhibition of Control Specific Binding @ 10 μM (P2X): 2% | inhibition at 10 µM (BLT1 (LTB4) (h)): -4% | inhibition at 10 µM (Neurokinin NK2 (h)): 0% | % Inhibition of Control Specific Binding @ 10 μM (Adrenergic α1 (ns)): −5% | inhibition at 10 µM (Vasopressin V2 (h)): 4% | % Inhibition of Control Specific Binding @ 10 μM (SKCa channel): 1% | inhibition at 10 µM (Endothelin ETA (h)): -12% | inhibition at 10 µM (Histamine H3 (h)): -13% | inhibition at 10 µM (PDE4D (h)): -11% | inhibition at 10 µM (Adenosine A1 (h)): 2% | inhibition at 10 µM (Adenosine A2A (h)): 2% | inhibition at 10 µM (Bradykinin B2 (h)): -3% | % Inhibition of Control Specific Binding @ 10 μM (KV channel): −2% | % Inhibition of Control Specific Binding @ 10 μM [2]: −2% | % Inhibition of Control Specific Binding @ 10 μM (Thyroid hormone TR (TH)): −9%

CNC(=O)c1ccc(N2C(=O)N(c3ccc(C#N)c(C(F)(F)F)c3)C(=O)C2(C)C)cc1F [(MIV), 4-(3-(4-cyano-3-(trifluoromethyl)phenyl)-5,5-dimethyl-2,4-dioxoimidazolidin-1-yl)-2-fluoro-N-methylbenzamide]
% Inhibition of Control Specific Binding @ 10 μM (P2X): 2% | inhibition at 10 µM (BLT1 (LTB4) (h)): -6% | inhibition at 10 µM (Neurokinin NK2 (h)): 2% | agonist activity at α1β3γ2 GABAA receptor (inward currents) ([1]; single exposure 30 sec): did not evoke any detectable inward currents | % Inhibition of Control Specific Binding @ 10 μM (Adrenergic α1 (ns)): −3% | inhibition at 10 µM (Vasopressin V2 (h)): -1% | % Inhibition of Control Specific Binding @ 10 μM (SKCa channel): −10% | inhibition at 10 µM (Endothelin ETA (h)): -27% | inhibition at 10 µM (Histamine H3 (h)): -4% | inhibition at 10 µM (PDE4D (h)): -41% | inhibition at 10 µM (Adenosine A1 (h)): 6% | inhibition at 10 µM (Adenosine A2A (h)): 3% | inhibition at 10 µM (Bradykinin B2 (h)): 0% | % Inhibition of Control Specific Binding @ 10 μM (KV channel): −4% | % Inhibition of Control Specific Binding @ 10 μM [2]: 16% | % Inhibition of Control Specific Binding @ 10 μM (Thyroid hormone TR (TH)): −2%
